# Test results from patent US7741344B2, “Process for preparing purified S-BEL and R-BEL and compositions thereof” (Washington University in St. Louis, priority 2002, dated 2010).
# Tests used:
# A-10 smooth muscle cells = experiment: AVP-induced [3H]-arachidonic acid liberation from A-10 cells; assay type: cell-based, rat; settings: for restoration of arachidonic acid release in (S)-BEL treated A-10 cells: 5 μM (S)-BEL pretreatment, then 1 μM AVP with PMA (1 μM) or DOG (10 μM), FIG. 7
# Procedure: Quantification of [^3H]-Arachidonic Acid Liberation from A-10 Phospholipids—Rat aortic smooth muscle A-10 cells, cultured in 60 mm dishes (2.5×10^5 cells/dish), were radiolabeled with 0.5 μCi [^3H]-arachidonic acid per dish as previously described (29). Cells were washed once with DMEM containing 0.25% fatty acid free bovine serum albumin followed by two washes with DMEM alone. Cells were then incubated with the indicated concentrations of (R)-, (S)-, rac-BEL, or ethanol vehicle (0.1% final concentration) in DMEM for 20 min. This media was removed and the cells were then incubated with DMEM containing 10% heat-inactivated fetal bovine serum in the absence or presence of 1 μM AVP. In some tests, PMA (1 μM) or DOG (10 μM) was added to the medium containing AVP. After 5 mm, 1 ml of this medium was removed, lipids were extracted into 2 ml of chloroform/methanol/acetic acid (25:24:1 v/v) (38), and the remaining cells were scraped into 1 ml of deionized water prior to lipid extraction as described above. The chloroform layer was evaporated under nitrogen and the extracted lipids were separated by thin layer chromatography (petroleum ether/ethyl ether/glacial acetic acid 70:30:1). Regions containing fatty acids and phospholipids were scraped into vials and radioactivity was quantified by liquid scintillation spectrometry.
# A-10 cells (2.5×10^5 cells/dish) were radiolabeled with [^3H]-arachidonic acid (0.5 μCi/dish) for 20 hrs. After washing to remove unincorporated [^3H]-arachidonic acid, cells were then incubated with either 1 μM or 5 μM (R)-BEL, (S)-BEL, rac-BEL, or ethanol vehicle (0.1%) in DMEM for 20 mm. This media was removed and the cells were then incubated with 3 ml of DMEM containing 10% heat-inactivated fetal bovine serum with or without 1 μM AVP. After 5 min, 1 ml of this medium was removed and lipids were extracted into 2 ml of chloroform/methanol/acetic acid (25:24:1). The remaining cells were scraped into 1 ml of deionized water and total lipids were extracted as described above. The chloroform layer was evaporated under nitrogen and the extracted lipids were separated by TLC. Regions containing fatty acids and phospholipids were scraped into vials and radioactivity was quantified by liquid scintillation spectrometry. Results are representative of four separate tests.
# A-10 cells were radiolabeled with [^3H]-arachidonic acid, washed, and pre-incubated with 5 μM (S)-BEL or ethanol vehicle alone for 15 min as described in FIG. 5. DMEM media containing 10% heat-inactivated fetal bovine serum with or without 1 μM AVP was then added to the cells. After 5 min at 37° C., [^3H]-arachidonic acid released into the media and remaining within the cells (free and incorporated into phospholipids) was extracted into chloroform, separated by TLC, and quantified by liquid scintillation spectrometry as described in “Experimental Procedures”. Results are representative of three separate tests.
# PKCε = experiment: AVP-induced PKC translocation in A-10 cells (Western), PKCε; assay type: cell-based, rat; settings: 5 μM pretreatment 15 min, 1 μM AVP; FIG. 8
# Procedure: (§1) Determination of PKC Translocation—Confluent A-10 cells in 10 cm dishes were washed twice with DMEM without serum, followed by incubation with either 5 μM (S)-BEL or ethanol vehicle in DMEM for 15 min at 37° C. This media was then removed and DMEM with or without 1 μM AVP was incubated with the cells for 5 min. After washing with ice-cold PBS, the cells were collected by scraping into 20 mM Tris-HCl, pH 7.4 containing 0.33 M sucrose, 5 mM EDTA, 0.5 mM 4(2-aminoethyl)benzenesulfonylfluoride, and 5 μg/ml leupeptin and were lysed by three cycles of flash freezing with liquid nitrogen and thawing. Each sample was then further homogenized utilizing a teflon homogenizer before isolating the low speed pellet (1,000×g), membrane (100,000×g pellet), and cytosol (100,000×g supernatant) fractions. The protein concentrations of the fractions were determined utilizing the bicinchoninic acid (BCA) assay (Pierce) with BSA as a standard. Samples were electrophoresed and subjected to ECL Western analysis utilizing rabbit polyclonal antibodies against PKCα and PKCε as described above for MAPK phosphorylation. For blots incubated with mouse monoclonal antibodies against PKCδ and PKCι., an anti-mouse IgG (Fab specific)-peroxidase conjugate was utilized in place of the protein A-peroxidase conjugate. […]
# α-chymotrypsin = target: T1, α-chymotrypsin (Bos taurus, UniProt P00766); experiment: Inhibition of α-chymotrypsin by BEL; assay type: biochemical; settings: 2 μM chymotrypsin, up to 5-fold molar excess of inhibitor, 5 min 22° C., then 1000-fold dilution with 100 mM hydrazine; FIG. 3
# T1 construct: purchased Sigma
# Procedure: Inhibition of α-Chymotrypsin by BEL—The kinetics of α-chymotrrpsin inactivation by (R)-, (S)-, and rac-BEL were performed similar to methods previously described (36). The concentration of α-chymotrypsin (MW=25,000) was determined using an A^1%=20 (1 cm pathlength) at 280 nm (37). Briefly, one milliliter of α-chymotrypsin (2 μM) was incubated with up to a 5-fold molar excess of (R)-,(S)-, or rac-BEL dissolved in acetonitrile or vehicle alone for 5 mm at 22° C. in 0.1 M sodium phosphate buffer, pH 7.2. […] Following incubation at 22° C. for 1 hr, chymotrypsin activity in each diluted sample was measured utilizing a SPECTRAmax GeminiXS microplate spectrofluorometer with N-succinyl-Ala-Ala-Pro-Phe-7-amidomethylcoumarin (50 μM) as substrate for 1 mm at 25° C. Excitation and emission wavelengths were 380 nm and 460 nm, respectively.
# Chymotrypsin (2 μM) in 0.1 M sodium phosphate buffer, pH 7.2 was incubated with the indicated concentrations of racemic, (R)-, or (S)-BEL for 5 mm. This solution was then diluted 1000-fold in 0.1 M sodium phosphate buffer, pH 7.2 containing 100 mM hydrazine and incubated for 1 hr at 22° C. Chymotrypsin proteolytic activity was measured spectrofluorometrically using N-succinyl-Ala-Ala-Pro-Phe-7-amido-4-methylcoumarin (50 μM) as substrate.
# [1] = system: purified recombinant iPLA2β; experiment: Assay of iPLA2β inhibition by BEL (radiolabeled phospholipid substrate); assay type: biochemical
# Procedure: Recombinant iPLA2 Enzymes—Recombinant iPLA2β was expressed and purified from Sf9 cells as previously described (35).
# Assay of iPLA2β and iPLA2γ Inhibition by BEL—Purified recombinant iPLA2β or Sf9 cell membranes containing recombinant iPLA2γ were incubated with (R) BEL, (S) BEL, racemic BEL, or ethanol vehicle for 3 mm at 22° C. in the presence of 100 mM Tris-HCl (pH 7.0) and 4 mM EGTA (for iPLA2β) or 100 mM Tris-acetate (pH 8.0) and 4 mM EGTA (for iPLA2γ). The concentration of BEL used for each test ranged from 0 to 16 μM. L-α-1-palmitoyl-2-[1^14C]-arachidonyl-phosphatidylcholine (5 μM final concentration) or L-α-1-palmitoyl-2-[1-^14C]-oleoyl-phosphatidylcholine (5 μM final concentration) in ethanol was then added to each sample and incubated at 37° C. for 2 min. Reactions were terminated by extraction of radiolabeled products into butanol, and reactants and products were separated by thin layer chromatography using Whatman LK6D 60 Å Silica Gel plates with petroleum ether/ethyl ether/acetic acid (70:30:1) as the mobile phase. Regions corresponding to the migration of a fatty acid standard visualized by iodine staining were scraped into vials and radioactivity was quantified by scintillation spectrometry.
# Panel A—Purified recombinant iPLA2β (1 μg/ml) in 100 mM Tris-HCl, pH 7.3 containing 1 mM EGTA was preincubated at 22° C. for 3 mm in the presence of the indicated concentrations of (R)-, (S)-, or rac-BEL or ethanol vehicle alone (1% final concentration). Radiolabeled substrate (L-α-1-palmitoyl-2-[1-^14C]-arachidonyl-phosphatidylcholine, 5 μM final concentration) was then added to each reaction and incubated at 37° C. for 2 min. Reactions were terminated by extraction of remaining substrate and products into butanol, separation by TLC, and quantification of released radiolabeled fatty acid by scintillation spectrometry as described in Experimental Procedures.
# [2] = system: MAPK (ERK2) phosphorylation; experiment: AVP-induced MAPK phosphorylation in A-10 cells (Western); assay type: cell-based, rat; settings: 5 μM, 15 min, 1 μM AVP; FIG. 9
# PKCδ = experiment: AVP-induced PKC translocation in A-10 cells (Western), PKCδ; assay type: cell-based, rat; settings: 5 μM pretreatment 15 min, 1 μM AVP; FIG. 8
# Procedure: as §1
"IC50 (A-10 smooth muscle cells; 1 μM AVP, read-out: IC50, AVP-induced liberation of AA from A-10 cells) [nM]",inhibition of chymotrypsin (α-chymotrypsin),Structure (SMILES),restoration of arachidonic acid release in (S)-BEL treated A-10 cells (A-10 smooth muscle cells),"inhibition of AVP-induced AA release (A-10 smooth muscle cells; 1 μM inhibitor, 20 min pretreatment, 1 μM AVP, FIG. 5) [%]","AVP-induced AA release (in words) (A-10 smooth muscle cells; 5 μM inhibitor, 1 μM AVP, FIG. 5)",AVP-induced translocation of PKCε to the membrane fraction (PKCε),selectivity for inhibition of iPLA2β [1] [fold],"inhibition of iPLA2β, fold more potent than (R)-BEL ([1]; 3 min preincubation, FIG. 4A) [fold]",selectivity for iPLA2β in comparison to iPLA2γ ([1]; in words),AVP-induced phosphorylation of ERK2 [2],AVP-induced translocation of PKCδ to the membrane fraction (PKCδ)
–,–,"CCCCCCCCCCCCCC(=O)O[C@@H]1[C@@H](C)[C@@]2(O)[C@@H](C=C(CO)C[C@]3(O)C(=O)C(C)=C[C@@H]23)[C@@H]2C(C)(C)[C@]12OC(C)=O [PMA, Phorbol-12-myristate-13-acetate]",Neither PMA or DOG could restore,–,–,–,–,–,–,–,–
~1000,considerably less potent,"O=C1O/C(=C/Br)CC[C@H]1c1cccc2ccccc12 [(S)-BEL, (S)(E)-6-(bromomethylene)-3-(1-naphthalenyl)-2H-tetrahydropyran-2-one]",–,50,completely attenuated,does not effect,10,10,approximately an order of magnitude more selective,not effected,does not effect
–,–,"CCCCCCCC(=O)OC[C@H](CO)OC(=O)CCCCCCC [DOG, 1,2-Dioctanoyl-sn-glycerol]",Neither PMA or DOG could restore,–,–,–,–,–,–,–,–
